The target of one assay is T1, GST-tagged FAK (Homo sapiens, UniProt Q05397).
T1 construct: purchased Invitrogen PV3832
The assay can be described thus: Biochemical assay for FAK activity, Assay 1: GST-FAK, peptide substrate phosphorylation with 33P-ATP. The settings on record: 5 μM ATP, 30 min pre-incubation, read-out: Assay 1 FAK TRF PXC50 (converted). How it is done: (§1) Biochemical Assay for FAK Activity
To measure inhibitors of FAK, compounds were first prepared as a 10× stock in 10% DMSO. […] A 6-nM GST-FAK solution was prepared in 1.1× reaction buffer containing 44 mM HEPES, pH=7.2, 11 mM MgCl2, 2.2 mM MnCl2, 1.1 mM DTT and 0.011% Tween-20. Then, 20 μL of the 6 nM GST-FAK solution were pre-incubated with the compounds for 30 min at room temperature. […] The reaction was allowed to proceed for 90 min before being quenched with 40 μL of 1% H3PO4. A portion of the reaction mixture (60 μL) was transferred to a phospho-cellulose filter plate (Millipore; www.millipore.com, MAPHNOB50) and incubated for 20 minutes. The plate was filtrated, washed three times using 150 μL of 0.5% H3PO4 and dried at 50° C. for 30 min. After the addition of 60 μL Microscint-20 to the plate, radioactivity was measured using a TopCount (PerkinElmer; www.PerkinElmer.com).

Assay [1] deals with T2, Full length Human FAK (FLAG-6×His-TEV-huFAK) (Homo sapiens, UniProt Q05397).
T2 construct: Full length Human FAK was expressed using baculovirus in Sf9 cells; made in house; host or cells: baculovirus in Sf9 cells
In words: Biochemical assay for FAK activity, Assay 2: Flag-His-TEV-FAK1, LANCE Ultra ULight peptide phosphorylation. Particulars: Flag-His-TEV-FAK1, 10 μM ATP, 30 min pre-incubation; read-out: Assay 2 FAK H 31284A TRF PXC50 (converted). How it is done:
as §1
Assay 2: Flag-His-TEV-FAK1 was prepared in-house. Full length Human FAK was expressed using baculovirus in Sf9 cells with N-terminal FLAG-6×His tags followed by a TEV cleavage site (FLAG-6×His-TEV-huFAK). […] To measure inhibitors of FAK, compounds were first prepared as a 100× stock in 100% DMSO. A small portion of each compound solution (50 nL) was added to a black 384-well low-volume microtiter plate (Greiner 784076). A 1.2 nM Flag-His-TEV-FAK1 solution was prepared in 1× reaction buffer containing 40 mM Tris/Tris-HCL, 10 mM MgCl2, 1 mM CHAPS, at a pH of 7.5, with 1 mM DTT added. 2.5 ul of the 1.2 nM Flag-FAK solution was added to the plates and pre-incubated with the compounds for 30 min at room temperature. […] After incubating for 120 minutes at room temperature, the reaction is quenched by adding 5 uL of 20 mM EDTA and 5nMEu-Anti-pTyr antibody in 1× LANCE detection buffer. After a 30 minute incubation at room temperature, the plate is read on a Perkin Elmer Viewlux with a 320-340 nm excitation filter and measuring emission at 615 nm and 665 nm. The ratio of 665 nm/615 nm is used for data normalization.
Background: In TR-FRET formats the signal depends on donor and acceptor labels being close together.

Here are results for 2 compounds from patent US9446034B2, “Pyrazolylaminopyridines as inhibitors of FAK” (GlaxoSmithKline LLC, priority 2008, dated 2016).

The structures appear in SMILES notation.

T2 sequence (Q05397 whole entry): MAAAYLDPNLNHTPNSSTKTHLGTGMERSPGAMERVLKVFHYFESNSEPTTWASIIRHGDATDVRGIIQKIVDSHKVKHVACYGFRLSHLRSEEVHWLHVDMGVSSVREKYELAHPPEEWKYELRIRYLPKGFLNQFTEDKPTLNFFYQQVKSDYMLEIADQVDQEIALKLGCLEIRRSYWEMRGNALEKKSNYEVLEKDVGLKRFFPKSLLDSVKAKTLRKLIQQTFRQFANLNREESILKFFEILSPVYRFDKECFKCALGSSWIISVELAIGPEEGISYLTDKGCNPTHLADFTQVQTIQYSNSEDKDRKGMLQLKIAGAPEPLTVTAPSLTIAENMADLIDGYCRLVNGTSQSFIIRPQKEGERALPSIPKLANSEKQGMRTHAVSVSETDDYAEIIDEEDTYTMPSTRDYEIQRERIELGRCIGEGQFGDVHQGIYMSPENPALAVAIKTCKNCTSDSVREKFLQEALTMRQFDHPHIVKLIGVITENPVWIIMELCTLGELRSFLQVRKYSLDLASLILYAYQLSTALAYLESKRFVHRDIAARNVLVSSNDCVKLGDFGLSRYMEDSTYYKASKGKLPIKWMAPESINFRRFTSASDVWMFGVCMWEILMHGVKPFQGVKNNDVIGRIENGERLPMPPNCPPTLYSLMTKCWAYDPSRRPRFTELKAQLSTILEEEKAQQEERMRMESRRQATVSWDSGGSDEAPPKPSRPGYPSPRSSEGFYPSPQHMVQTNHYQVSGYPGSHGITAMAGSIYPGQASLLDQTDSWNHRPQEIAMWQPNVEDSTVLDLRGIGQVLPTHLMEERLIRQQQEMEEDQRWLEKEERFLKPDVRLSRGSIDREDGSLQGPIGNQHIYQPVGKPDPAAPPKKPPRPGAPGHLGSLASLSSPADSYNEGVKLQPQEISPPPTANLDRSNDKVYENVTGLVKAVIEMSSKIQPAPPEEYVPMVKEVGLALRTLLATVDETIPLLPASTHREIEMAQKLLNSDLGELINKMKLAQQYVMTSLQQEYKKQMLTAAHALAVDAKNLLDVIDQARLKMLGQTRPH
T1 sequence (Q05397 whole entry): as above

Regarding `CCn1nccc1Nc1cc(Nc2cc(F)c(F)cc2C(=O)NC)c(Cl)cn1` [Example 10, 2-({5-Chloro-2-[(1-ethyl-1H-pyrazol-5-yl)amino]-4-pyridinyl}amino)-4,5-difluoro-N-methylbenzamide], the IC50 on GST-tagged FAK was 0.794 nM; in assay [1] it was 10 nM.
For the compound `CCNC(=O)c1ccccc1Nc1cc(Nc2ccnn2CC)ncc1Cl` [Example 44, 2-({5-Chloro-2-[(1-ethyl-1H-pyrazol-5-yl)amino]-4-pyridinyl}amino)-N-ethylbenzamide], the IC50 was 6.31 nM at GST-tagged FAK and 63.1 nM in assay [1].
